What was measured:
[1] = tested on: pigweed; test: Test B pre/postemergence pigweed; type: in vivo, Amaranthus retroflexus
Outline: (§1)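 Test chemicals in a non-phytotoxic solvent mixture with surfactant were sprayed preemergence onto planted seeds and postemergence onto plants 2 to 18 cm tall (1- to 4-leaf stage). After twelve to sixteen days in a greenhouse, injury was visually rated against untreated controls from 0 (no effect) to 10 (complete control).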

[2] = tested on: morningglory; test: Test B pre/postemergence morningglory; type: in vivo, Ipomoea hederacea
Outline: as §1

[3] = tested on: purple nutsedge; test: Test B pre/postemergence purple nutsedge; type: in vivo, Cyperus rotundus
Outline: as §1

[4] = tested on: rape; test: Test B pre/postemergence rape; type: in vivo, Brassica napus
Outline: as §1

[5] = tested on: bamyardgrass; test: Test B flood test barnyardgrass; type: in vivo, Echinochloa crus-galli
Outline: (§2)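 Flood test on plants grown to the 2-leaf stage; treated plants kept in greenhouse twelve to sixteen days, then visually rated against controls on a 0 (no effect) to 10 (complete control) scale.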

[6] = tested on: surinam grass; test: Test B pre/postemergence surinam grass; type: in vivo, Brachiaria decumbens
Outline: as §1

[7] = tested on: wheat; test: Test B pre/postemergence wheat; type: in vivo, Triticum aestivum
Outline: as §1

[8] = tested on: bedstraw; test: Test B pre/postemergence bedstraw; type: in vivo, Galium aparine; details: Postemergence, Rate 250 g/ha; scale of 0 to 10, 0 is no effect, 10 is complete control
Outline: as §1

[9] = tested on: blackgrass; test: Test B pre/postemergence blackgrass; type: in vivo, Alopecurus myosuroides
Outline: as §1

[10] = tested on: soybean; test: Test B pre/postemergence soybean; type: in vivo, Glycine max
Outline: as §1

[11] = tested on: giant foxtail; test: Test B pre/postemergence giant foxtail; type: in vivo, Setaria faberii
Outline: as §1

[12] = tested on: duck salad; test: Test B flood test duck salad; type: in vivo, Heteranthera limosa
Outline: as §2

[13] = tested on: wild oat; test: Test B pre/postemergence wild oat; type: in vivo, Avena fatua
Outline: as §1

[14] = tested on: sugar beet; test: Test B pre/postemergence sugar beet; type: in vivo, Beta vulgaris
Outline: as §1

[15] = tested on: smallflower flatsedge; test: Test B flood test smallflower flatsedge; type: in vivo, Cyperus difformis
Outline: as §2

[16] = tested on: cocklebur; test: Test B pre/postemergence cocklebur; type: in vivo, Xanthium strumarium
Outline: as §1

[17] = Postemergence, Rate 62 g/ha, scale 0 to 10, 0 is no effect, 10 is complete control
[18] = Postemergence, Rate 125 g/ha, scale of 0 to 10 where 0 is no effect and 10 is complete control
[19] = Preemergence, Rate 62 g/ha, scale of 0 to 10 where 0 is no effect and 10 is complete control
[20] = Preemergence, Rate 125 g/ha, scale of 0 to 10 where 0 is no effect and 10 is complete control
[21] = Preemergence, Rate 250 g/ha, scale 0 to 10 (0 no effect, 10 complete control)
[22] = Preemergence, Rate 500 g/ha, scale of 0 to 10 where 0 is no effect and 10 is complete control
[23] = Rate 500 g/ha, Postemergence, scale 0 to 10, 0 is no effect, 10 is complete control
[24] = Postemergence, Rate 250 g/ha, scale of 0 to 10, 0 is no effect, 10 is complete control
[25] = Rate 62 g/ha, flood test species, Pre-emergence, visual evaluation after twelve to sixteen days
[26] = Rate 125 g/ha, under heading Pre-emergence, flood test species, visual evaluation after twelve to sixteen days
[27] = Rate 250 g/ha, Pre-emergence (flood test species), scale 0 to 10, 0 is no effect, 10 is complete control
[28] = Rate 500 g/ha, Pre-emergence section of Table B, 0 to 10 scale (0 no effect, 10 complete control)

C#CC(C)n1c(=O)on(C(=O)N(c2ccc(Cl)cc2)C(C)C)c1=O (racemic) [Compound 658]
Plant response rating, Redroot pigweed [1, 17]: 6
Redroot pigweed plant response rating [1, 18]: 6
Redroot pigweed plant response rating [1, 19]: 2
Redroot pigweed plant response rating [1, 20]: 9
Plant response rating, Redroot pigweed [1, 21]: 9
Plant response rating, Redroot pigweed [1, 22]: 10
Redroot pigweed plant response rating [1, 23]: 7
Plant response rating, Morningglory [2, 17]: 7
Morningglory plant response rating [2, 18]: 7
Morningglory plant response rating [2, 24]: 7
Morningglory plant response rating [2, 19]: 0
Morningglory plant response rating [2, 20]: 0
Plant response rating, Morningglory [2, 21]: 0
Plant response rating, Morningglory [2, 22]: 0
Morningglory plant response rating [2, 23]: 10
Plant response rating, Nutsedge [3, 17]: 0
Nutsedge plant response rating [3, 18]: 0
Nutsedge plant response rating [3, 19]: 0
Nutsedge plant response rating [3, 20]: 0
Plant response rating, Nutsedge [3, 21]: 0
Plant response rating, Nutsedge [3, 22]: 2
Nutsedge plant response rating [3, 23]: 2
Plant response rating, Rape [4, 17]: 0
Rape plant response rating [4, 18]: 0
Rape plant response rating [4, 19]: 2
Rape plant response rating [4, 20]: 5
Plant response rating, Rape [4, 21]: 5
Plant response rating, Rape [4, 22]: 8
Rape plant response rating [4, 23]: 3
Plant response rating, Barnyardgrass (0 to 10 scale, 0 is no effect, 10 is complete control) [5, 25]: 0
Barnyardgrass plant response rating (0 to 10 scale, 0 is no effect, 10 is complete control) [5, 26]: 0
Barnyardgrass plant response rating [5, 27]: 0
Barnyardgrass plant response rating [5, 28]: 0
Plant response rating, B. signalgrass [6, 17]: 0
Plant response rating, B. signalgrass [6, 18]: 0
B. signalgrass plant response rating [6, 24]: 0
B. signalgrass plant response rating [6, 19]: 0
B. signalgrass plant response rating [6, 20]: 0
Plant response rating, B. signalgrass [6, 21]: 8
Plant response rating, B. signalgrass [6, 22]: 8
B. signalgrass plant response rating [6, 23]: 0
Plant response rating, Wheat [7, 17]: 0
Wheat plant response rating [7, 18]: 0
Wheat plant response rating [7, 19]: 0
Wheat plant response rating [7, 20]: 0
Plant response rating, Wheat [7, 21]: 0
Plant response rating, Wheat [7, 22]: 3
Wheat plant response rating [7, 23]: 0
Bedstraw plant response rating [8]: 0
Plant response rating, Blackgrass [9, 17]: 0
Blackgrass plant response rating [9, 18]: 3
Blackgrass plant response rating [9, 24]: 6
Blackgrass plant response rating [9, 19]: 3
Blackgrass plant response rating [9, 20]: 7
Plant response rating, Blackgrass [9, 21]: 7
Plant response rating, Blackgrass [9, 22]: 7
Blackgrass plant response rating [9, 23]: 7
Plant response rating, Soybean [10, 17]: 2
Soybean plant response rating [10, 18]: 4
Soybean plant response rating [10, 19]: 0
Soybean plant response rating [10, 20]: 0
Plant response rating, Soybean [10, 21]: 0
Plant response rating, Soybean [10, 22]: 3
Soybean plant response rating [10, 23]: 4
Plant response rating, Giant foxtail [11, 17]: 0
Giant foxtail plant response rating [11, 18]: 3
Giant foxtail plant response rating [11, 24]: 7
Giant foxtail plant response rating [11, 19]: 9
Giant foxtail plant response rating [11, 20]: 9
Plant response rating, Giant foxtail [11, 21]: 9
Plant response rating, Giant foxtail [11, 22]: 10
Giant foxtail plant response rating [11, 23]: 6
Plant response rating, Ducksalad (0 to 10 scale, 0 is no effect, 10 is complete control) [12, 25]: 0
Ducksalad plant response rating (0 to 10 scale, 0 is no effect, 10 is complete control) [12, 26]: 0
Ducksalad plant response rating [12, 27]: 0
Ducksalad plant response rating [12, 28]: 0
Plant response rating, Wild oats [13, 17]: 1
Wild oats plant response rating [13, 18]: 1
Wild oats plant response rating [13, 19]: 0
Wild oats plant response rating [13, 20]: 2
Plant response rating, Wild oats [13, 21]: 3
Plant response rating, Wild oats [13, 22]: 4
Wild oats plant response rating [13, 23]: 2
Plant response rating, Sugarbeets [14, 17]: 0
Sugarbeets plant response rating [14, 18]: 0
Sugarbeets plant response rating [14, 19]: 3
Sugarbeets plant response rating [14, 20]: 7
Plant response rating, Sugarbeets [14, 21]: 6
Plant response rating, Sugarbeets [14, 22]: 7
Sugarbeets plant response rating [14, 23]: 2
Plant response rating, S. Flatsedge (0 to 10 scale, 0 is no effect, 10 is complete control) [15, 25]: 0
S. Flatsedge plant response rating (0 to 10 scale, 0 is no effect, 10 is complete control) [15, 26]: 0
S. Flatsedge plant response rating [15, 27]: 0
S. Flatsedge plant response rating [15, 28]: 0
Plant response rating, Cocklebur [16, 17]: 0
Cocklebur plant response rating [16, 18]: 0
Cocklebur plant response rating [16, 24]: 2
Cocklebur plant response rating [16, 19]: 0
Cocklebur plant response rating [16, 20]: 0
Plant response rating, Cocklebur [16, 21]: 0
Plant response rating, Cocklebur [16, 22]: 0
Cocklebur plant response rating [16, 23]: 5
